Tests used:
MDA-MB-468 tumors [1] = experiment: Radioactivity metabolite characterization (radio-HPLC of tumor extracts); format: in vivo, mouse; settings: 24 h post iv
Procedure: MDA-MB-468 tumor xenografts were established on the forelimbs of female athymic nude mice (Hsd:Athymic Nude-Foxn1nu; Envigo; 6 weeks old; RRID:MGI:5652489) by subcutaneous (s.c.) injection of 5 × 10^6 cells in a 200 µl cell suspension of a 1:1 v/v mixture of PBS with reconstituted basement membrane (BD Matrigel^TM, Collaborative Biomedical Products Inc., Bedford, MA). […] After 24 h, tumors were harvested and weighed prior to homogenization in acetonitrile/H2O (3:7) using Bullet Blender Tissue Homogenizer (Next Advance Inc.). Tumor-associated radioactivity was extracted in methylene chloride, and the organic layer was separated and dried under vacuum. Samples were reconstituted in 10% CH3CN in 0.1% HCOOH in water were analyzed using Shimadzu (Columbia, Maryland USA) HPLC system equipped with binary pumps LC-20AB, UV detector and sodium iodide radioactivity detector connected to flow-ram (Lab Logic, Tampa, FL) and 250 × 4.6 mm Phenomenex Luna (Torrance, CA) C-18 HPLC column (10 µM, 100 A).

MDA-MB-468 tumors [2] = experiment: In vivo biodistribution of [131I]-PU-HZ151 (gamma counting); parameters: species or system mouse; key to Biodistribution, Lung / Biodistribution, Heart / Biodistribution, Muscle / Biodistribution, Blood / Biodistribution, Bone / Biodistribution, Brain / Biodistribution, tumor: percent injected dose per gram tissue (%ID/g); Biodistribution, Tumor - S / Biodistribution, Tumor - L: unit: %ID/g; settings: mean
Procedure: Activity in the syringe before and after administration was assayed in a dose calibrator (CRC-15R; Capintec) to determine by difference the actual activity administered to each animal. Animals were euthanized by CO2 asphyxiation at different time points post-administration of the tracer and organs including tumors were harvested and weighed. […] Count data were background and decay-corrected to the time of injection, and the percent injected dose per gram (%ID g^−1) for each tissue sample was calculated by using a measured calibration factor to convert count rate to activity and the activity was normalized to the activity injected and the mass of sample assayed to yield the activity concentration in %ID g^−1.

CC(C)(C)CNCCn1c(Sc2cc3c(cc2[131I])OCO3)nc2c(N)ncnc21 [[131I]-PU-HZ151]
species in tumor extract (MDA-MB-468 tumors [1]): only [^131I]-PU-HZ151 contributed to tumor-associated radioactivity
Biodistribution, Blood (MDA-MB-468 tumors [2]; 1 h): 0.732
Biodistribution, Bone (MDA-MB-468 tumors [2]; 1 h): 0.55
Biodistribution, Brain (MDA-MB-468 tumors [2]; 1 h): 0.397
Biodistribution, Heart (MDA-MB-468 tumors [2]; 1 h): 0.402
Biodistribution, Lung (MDA-MB-468 tumors [2]; 1 h): 0.666
Biodistribution, Muscle (MDA-MB-468 tumors [2]; 1 h): 0.29
Biodistribution, tumor (MDA-MB-468 tumors [2]; 1 h): 1.745
Biodistribution, Blood (MDA-MB-468 tumors [2]; 4 h): 0.1086
Biodistribution, Bone (MDA-MB-468 tumors [2]; 4 h): 0.07
Biodistribution, Brain (MDA-MB-468 tumors [2]; 4 h): 0.015
Biodistribution, Heart (MDA-MB-468 tumors [2]; 4 h): 0.063
Biodistribution, Lung (MDA-MB-468 tumors [2]; 4 h): 0.296
Biodistribution, Muscle (MDA-MB-468 tumors [2]; 4 h): 0.034
Biodistribution, Tumor - L (MDA-MB-468 tumors [2]; 4 h): 0.5106
Biodistribution, Tumor - S (MDA-MB-468 tumors [2]; 4 h): 0.5895
Biodistribution, Blood (MDA-MB-468 tumors [2]; 6 h): 0.08349
Biodistribution, Bone (MDA-MB-468 tumors [2]; 6 h): 0.05
Biodistribution, Brain (MDA-MB-468 tumors [2]; 6 h): 0.01
Biodistribution, Heart (MDA-MB-468 tumors [2]; 6 h): 0.045
Biodistribution, Lung (MDA-MB-468 tumors [2]; 6 h): 0.237
Biodistribution, Muscle (MDA-MB-468 tumors [2]; 6 h): 0.044
Biodistribution, Tumor - L (MDA-MB-468 tumors [2]; 6 h): 0.4547
Biodistribution, Tumor - S (MDA-MB-468 tumors [2]; 6 h): 0.5075
Biodistribution, tumor (MDA-MB-468 tumors [2]; 6 h): 0.5792
Biodistribution, Blood (MDA-MB-468 tumors [2]; 8 h): 0.05883
Biodistribution, Bone (MDA-MB-468 tumors [2]; 8 h): 0.033
Biodistribution, Brain (MDA-MB-468 tumors [2]; 8 h): 0.005
Biodistribution, Heart (MDA-MB-468 tumors [2]; 8 h): 0.027
Biodistribution, Lung (MDA-MB-468 tumors [2]; 8 h): 0.129
Biodistribution, Muscle (MDA-MB-468 tumors [2]; 8 h): 0.023
Biodistribution, Tumor - L (MDA-MB-468 tumors [2]; 8 h): 0.3061
Biodistribution, Tumor - S (MDA-MB-468 tumors [2]; 8 h): 0.2819
Biodistribution, Blood (MDA-MB-468 tumors [2]; 12 h): 0.02368
Biodistribution, Bone (MDA-MB-468 tumors [2]; 12 h): 0.012
Biodistribution, Brain (MDA-MB-468 tumors [2]; 12 h): 0.002
Biodistribution, Heart (MDA-MB-468 tumors [2]; 12 h): 0.009
Biodistribution, Lung (MDA-MB-468 tumors [2]; 12 h): 0.04
Biodistribution, Muscle (MDA-MB-468 tumors [2]; 12 h): 0.006
Biodistribution, Tumor - L (MDA-MB-468 tumors [2]; 12 h): 0.2552
Biodistribution, Tumor - S (MDA-MB-468 tumors [2]; 12 h): 0.2535
Biodistribution, Blood (MDA-MB-468 tumors [2]; first column group, 24 h): 0.002331
Biodistribution, Bone (MDA-MB-468 tumors [2]; first column group, 24 h): 0.016
Biodistribution, Brain (MDA-MB-468 tumors [2]; first column group, 24 h): 0.001
Biodistribution, Heart (MDA-MB-468 tumors [2]; first column group, 24 h): 0.003
Biodistribution, Lung (MDA-MB-468 tumors [2]; first column group, 24 h): 0.012
Biodistribution, Muscle (MDA-MB-468 tumors [2]; first column group, 24 h): 0.002
Biodistribution, Tumor - L (MDA-MB-468 tumors [2]; first column group, 24 h): 0.2045
Biodistribution, Tumor - S (MDA-MB-468 tumors [2]; first column group, 24 h): 0.1544
Biodistribution, Bone (MDA-MB-468 tumors [2]; first column group, 48 h): 0.004
Biodistribution, Brain (MDA-MB-468 tumors [2]; first column group, 48 h): 0
Biodistribution, Heart (MDA-MB-468 tumors [2]; first column group, 48 h): 0.002
Biodistribution, Lung (MDA-MB-468 tumors [2]; first column group, 48 h): 0.004
Biodistribution, Muscle (MDA-MB-468 tumors [2]; first column group, 48 h): 0.001
Biodistribution, Tumor - L (MDA-MB-468 tumors [2]; first column group, 48 h): 0.08346
Biodistribution, Tumor - S (MDA-MB-468 tumors [2]; first column group, 48 h): 0.08811
Biodistribution, Blood (MDA-MB-468 tumors [2]; second column group, 24 h): 0.0041
Biodistribution, Bone (MDA-MB-468 tumors [2]; second column group, 24 h): 0.012
Biodistribution, Brain (MDA-MB-468 tumors [2]; second column group, 24 h): 0.00319
Biodistribution, Heart (MDA-MB-468 tumors [2]; second column group, 24 h): 0.0138
Biodistribution, Lung (MDA-MB-468 tumors [2]; second column group, 24 h): 0.061
Biodistribution, Muscle (MDA-MB-468 tumors [2]; second column group, 24 h): 0.002
Biodistribution, tumor (MDA-MB-468 tumors [2]; second column group, 24 h): 0.1057
Biodistribution, Blood (MDA-MB-468 tumors [2]; second column group, 48 h): 0.00228
Biodistribution, Bone (MDA-MB-468 tumors [2]; second column group, 48 h): 0.0182
Biodistribution, Brain (MDA-MB-468 tumors [2]; second column group, 48 h): 0.00219
Biodistribution, Heart (MDA-MB-468 tumors [2]; second column group, 48 h): 0.00513
Biodistribution, Lung (MDA-MB-468 tumors [2]; second column group, 48 h): 0.0472
Biodistribution, Muscle (MDA-MB-468 tumors [2]; second column group, 48 h): 0.018
Biodistribution, tumor (MDA-MB-468 tumors [2]; second column group, 48 h): 0.03983

From paper PMC8333062, “Chemical tools for epichaperome-mediated interactome dysfunctions of the central nervous system” (Nature Communications, 2021)
